Results from article PMC7411735, “New Terpendole Congeners, Inhibitors of Sterol O-Acyltransferase, Produced by Volutella citrinella BF-0440” (Molecules, 2020).
Where two headings read alike, the source gives them in different places.

Columns and labels:
[1] = biological target: T1, human SOAT1 (Homo sapiens, UniProt P35610); assay: SOAT1 activity in SOAT1-CHO cells ([14C]CE formation from [1-14C]oleic acid); type: cell-based; conditions: for IC50: n ≧ 3
T1 construct: expressed in transfected cells; host or cells: CHO AC29 (SOAT-deficient) cells
T1 sequence (P35610 1-550): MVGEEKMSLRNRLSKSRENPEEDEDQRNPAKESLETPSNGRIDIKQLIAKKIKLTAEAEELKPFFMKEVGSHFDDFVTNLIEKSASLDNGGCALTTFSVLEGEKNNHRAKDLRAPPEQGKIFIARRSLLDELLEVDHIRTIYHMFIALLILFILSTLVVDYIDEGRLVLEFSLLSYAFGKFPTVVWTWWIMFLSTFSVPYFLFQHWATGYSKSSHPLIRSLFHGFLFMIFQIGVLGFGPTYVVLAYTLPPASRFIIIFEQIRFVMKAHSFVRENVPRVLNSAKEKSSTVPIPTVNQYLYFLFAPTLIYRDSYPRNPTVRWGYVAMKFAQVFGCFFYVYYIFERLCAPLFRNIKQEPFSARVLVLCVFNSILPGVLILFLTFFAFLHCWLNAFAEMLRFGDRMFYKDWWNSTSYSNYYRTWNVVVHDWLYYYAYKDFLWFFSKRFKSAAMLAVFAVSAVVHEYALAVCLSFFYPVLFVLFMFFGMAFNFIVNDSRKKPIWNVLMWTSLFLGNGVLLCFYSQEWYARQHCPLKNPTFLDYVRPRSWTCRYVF
Description: (§1) CHO cells (AC29 cells, SOAT-deficient cells) expressing the SOAT1 or SOAT2 genes from human were cultured using a previously described method [17].
(§2) Assays for human SOAT1 and SOAT2 activities using SOAT1- and SOAT2-CHO cells were performed using our established method [11, 17]. […] At least 80% confluent cells were used for assays. […] After a 6-h incubation at 37 °C in 5% CO2, medium was removed, and the cells in each well were washed twice with PBS. Cells were lysed by adding 0.25 mL of 10 mM Tris-HCl (pH 7.5) containing 0.1% (w/v) sodium dodecyl sulfate, and [^14C]CE was analyzed using a FLA-7000 analyzer (Fuji Film). In this cell-based assay, [^14C]CE was produced by the reaction of SOAT1 or SOAT2. SOAT inhibitory activity (%) is defined as ([1-^14C]CE-drug/[^14C]CE-control) × 100.

[2] = biological target: T2, human SOAT2 (Homo sapiens, UniProt O75908); assay: SOAT2 activity in SOAT2-CHO cells ([14C]CE formation from [1-14C]oleic acid); type: cell-based; conditions: for IC50: n ≧ 3
T2 construct: expressed in transfected cells; host or cells: CHO AC29 (SOAT-deficient) cells
T2 sequence (O75908 1-522): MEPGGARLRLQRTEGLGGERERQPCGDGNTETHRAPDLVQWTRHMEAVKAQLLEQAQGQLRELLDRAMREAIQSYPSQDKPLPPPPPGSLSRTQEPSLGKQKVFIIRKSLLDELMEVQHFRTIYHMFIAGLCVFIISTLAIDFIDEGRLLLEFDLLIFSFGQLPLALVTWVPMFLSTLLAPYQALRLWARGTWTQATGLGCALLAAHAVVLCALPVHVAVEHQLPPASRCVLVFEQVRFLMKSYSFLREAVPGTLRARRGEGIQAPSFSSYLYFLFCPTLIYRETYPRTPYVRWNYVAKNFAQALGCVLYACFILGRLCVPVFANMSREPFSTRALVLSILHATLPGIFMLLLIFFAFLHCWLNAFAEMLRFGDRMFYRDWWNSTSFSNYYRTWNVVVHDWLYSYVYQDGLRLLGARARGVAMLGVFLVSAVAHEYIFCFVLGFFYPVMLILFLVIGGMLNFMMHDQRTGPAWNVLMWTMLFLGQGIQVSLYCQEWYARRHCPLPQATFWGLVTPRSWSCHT
Description: as §1, §2

[3] = system: human SOAT2; assay: as above; type: cell-based; conditions: classified by SI
Description: as §1, §2

[4] = system: African green monkey SOAT1; design: method as in PMID 16629409; conditions: African green monkey SOAT1-CHO cells; cited from earlier work
[5] = system: African green monkey SOAT2; design: method as in PMID 16629409; conditions: cited from earlier work
[6] = system: human SOAT2; design: method as in PMID 32467602; conditions: classified by SI; cited from earlier work
[7] = system: SOAT2; design: method as in PMID 17390588; conditions: cited from earlier work
[8] = biological target: T2, human SOAT2; design: method as in PMID 32467602; conditions: SOAT2-CHO cells; cited from earlier work
[9] = IC50 SOAT1, human SOAT1-CHO cells
[10] = IC50 SOAT2, human SOAT2-CHO cells
[11] = SAR comparison: 4 vs 6 (R5), 8 vs 11 (R6)

| Molecule | IC50 [1, 9] [µM] | IC50 [2, 10] [nM] | Type of inhibitors [3] | further results |
| --- | --- | --- | --- | --- |
| CC(C)=CC1OC2C(OC3CCC4(C)C(C)(O)C(CC5(O)C(=O)Nc6cccc(CC7OC7(C)C)c65)CCC4(O)C34OC24)C(C)(C)O1 (stereo not shown) [Compound 1, Terpendole N] |  |  |  | IC50 ([1]; read-out: IC50 SOAT1, human SOAT1-CHO cells): > 14 µM; IC50 ([2]; read-out: IC50 SOAT2, human SOAT2-CHO cells): > 14000 nM |
| CC(C)=CCc1cccc2[nH]c3c(c12)C[C@@H]1CC[C@@]2(O)[C@@]45O[C@@H]4[C@@H]4O[C@H](C=C(C)C)OC(C)(C)[C@H]4O[C@H]5CC[C@]2(C)[C@@]31C [Compound 9, terpendole L] | 6.8 | 1800 | dual (Dual with -1.0 < SI < +1.0) |  |
| CC(C)=C[C@H]1O[C@H]2[C@H]3O[C@@]34[C@H](CC[C@@]3(C)[C@@]4(O)CC[C@H]4Cc5c([nH]c6cccc(CC7OC7(C)C)c56)[C@@]43C)O[C@@H]2C(C)(C)O1 (stereo partly shown) [Compound 2, terpendole O] | 2.8 | 2400 | dual (Dual with -1.0 < SI < +1.0) |  |
| CC(C)=CCc1c([C@H](O)C2OC2(C)C)ccc2[nH]c3c(c12)C[C@@H]1CC[C@@]2(O)C(C)(C)C(=O)CC[C@]2(C)[C@@]31C (stereo partly shown) [Compound 12, sespendole] |  |  |  | IC50 [4]: 12 µM; IC50 ([5]; African green monkey SOAT2-CHO cells): 6.5 µM; Type of inhibitors ([5]; classified by SI, African green monkey SOAT1 and SOAT2-CHO cells): dual (Dual with -1.0 < SI < +1.0) |
| CC(C)=CCc1cccc2[nH]c3c(c12)C[C@@H]1CC[C@@]2(O)[C@@]45O[C@@H]4[C@H](O)[C@@H](C(C)(C)O)O[C@H]5CC[C@]2(C)[C@@]31C [Compound 10, tolypocladin A] |  |  |  | IC50 ([1]; human SOAT1-CHO cells, read-out: IC50 SOAT1): > 18 µM; IC50 ([2]; human SOAT2-CHO cells, read-out: IC50 SOAT2): > 18000 nM |
| CC(C)=CCOC(C)(C)[C@H]1O[C@H]2CC[C@@]3(C)[C@]4(O[C@H]4C[C@H]4Cc5c([nH]c6ccccc56)[C@@]43C)[C@]23O[C@@H]3[C@@H]1O [Compound 3, terpendole P] | 5.9 | 6900 | dual (Dual with -1.0 < SI < +1.0) |  |
| CC(C)=CCOC(C)(C)[C@H]1O[C@H]2CC[C@@]3(C)[C@@H](CC[C@H]4Cc5c([nH]c6ccccc56)[C@@]43C)[C@]23O[C@@H]3[C@@H]1O [Compound 8, terpendole D] | 0.8 | 2100 | dual (Dual with -1.0 < SI < +1.0) |  |
| CC(C)=C[C@H]1O[C@H]2[C@H]3O[C@@]34[C@H](CC[C@@]3(C)[C@@]4(O)CC[C@H]4C[C@@]5(O)c6c(CC7OC7(C)C)cccc6N[C@@]5(O)[C@@]43C)O[C@@H]2C(C)(C)O1 (stereo partly shown) [Compound 4, voluhemin A] |  |  |  | enhancement of SOAT1 inhibitory activity relative to comparison compound [1, 11]: approximately 10 fold; enhancement of SOAT2 inhibitory activity relative to comparison compound [2, 11]: approximately 10 fold; Type of inhibitors [6]: dual (Dual with -1.0 < SI < +1.0) |
| CC(C)=CCOC(C)(C)[C@H]1O[C@H]2CC[C@@]3(C)[C@@](O)(CC[C@H]4Cc5c([nH]c6ccccc56)[C@@]43C)[C@]23O[C@@H]3[C@@H]1O [Compound 11, terpendole J] | 18.6 | 10700 | dual (Dual with -1.0 < SI < +1.0) |  |
| pyripyropene A |  |  |  | SOAT isozyme selectivity [7]: highly selective SOAT2 inhibitor |
| CC(C)=C[C@H]1O[C@H]2[C@H]3O[C@@]34[C@H](CC[C@@]3(C)[C@@]4(O)CC[C@H]4Cc5c([nH]c6ccccc56)[C@@]43C)O[C@@H]2C(C)(C)O1 [Compound 7, terpendole C] | 2 | 2200 | dual (Dual with -1.0 < SI < +1.0) |  |
| CC(C)=C[C@H]1O[C@H]2[C@H]3O[C@@]34[C@@H](O[C@@H]2C(C)(C)O1)[C@H](O)C[C@@]1(C)[C@@]4(O)CC[C@H]2C[C@@]3(O)c4c(CC5OC5(C)C)cccc4N[C@@]3(O)[C@@]21C (stereo partly shown) [Compound 6, NK12838] |  |  |  | IC50 [8]: 3.5 µM; Type of inhibitors [6]: dual (Dual with -1.0 < SI < +1.0) |
